Measured values from US9505740B2, “Cyclic amine derivative and pharmaceutical use thereof” (Toray Industries, Inc., priority 2013, dated 2016).
Counter-ions that a name gives are not always drawn.

How the values were obtained:
[1] = system: mouse partial sciatic nerve ligation model; experiment: Mouse partial sciatic nerve ligation model (Seltzer model), von Frey test; format: in vivo; conditions: Day 7, vs physiological saline group
[2] = system: fibromyalgia syndrome model rats; experiment: Fibromyalgia syndrome model in rats (acidic saline), allodynia by von Frey filament; format: in vivo, rat; conditions: intravenous administration; Example 13 3 and 10 mg/kg, pregabalin 10 mg/kg; 30 minutes after administration; vs acidic saline-vehicle group
From the text: Using a fibromyalgia syndrome model in rats by which fibromyalgia syndrome can be evaluated, the analgesic action of a cyclic amine derivative (I) or a prodrug thereof or a pharmacologically acceptable salt thereof was investigated.
As the cyclic amine derivative (I) or a pharmacologically acceptable salt thereof, the compound of Example 13 was used for evaluation. As the prodrug of a cyclic amine derivative (I) or a pharmacologically acceptable salt thereof, the compound of Example 38 was used for evaluation. The compound of Example 38 is a hydrochloride of a prodrug obtained by esterifying the carboxyl group of the compound of Example 39 with an ethyl group.
To prepare a fibromyalgia syndrome model rat (Sluka et al., Journal of Pharmacology and Experimental Therapeutics, vol. 302, p. 1146-50, 2002; Nagakura et al., Pain, vol. 146, p. 26-33, 2009; Sluka et al., Pain, vol. 146, p. 3-4, 2009), which is generally employed widely in basic research for fibromyalgia syndrome, acidic saline (100 μL) adjusted to pH4.0 was intramuscularly injected to the gastrocnemius muscle of the right hind paw of Crl: CD(SD) rat (6 to 7 weeks old, male; from CHARLES RIVER LABORATORIES JAPAN, INC.) under continuous inhalation anesthesia with isoflurane, twice (once in each day of Day 1 and Day 6, wherein Day 1 was the date on which the acidic saline was initially administrated). The rats thus prepared were raised in a breeding room controlled at an indoor temperature of 21 to 25° C. and an indoor humidity of 40 to 70% under the conditions of voluntary intake of food and water. In the same manner, rats to which physiological saline in place of acidic saline was intramuscularly injected were raised. The rats thus raised and not afflicted with fibromyalgia syndrome (“physiological saline-vehicle” group in FIGS. 23 and 24) were also used in the experiment.
Day 7 after the initial administration of acidic saline, allodynia in each rat was measured. […] Note that, measurement of allodynia was performed by use of a von Frey filament (from North Coast Medical) in accordance with the method described in a known literature (Chaplan et al., Journal of Neuroscience Methods, vol. 53, p. 55-63, 1994). […]
The compound of Example 13 (3 and 10 mg/kg) was dissolved in physiological saline and then administered (intravenous administration) to fibromyalgia syndrome model rats through the tail vein (“acidic saline—the compound of Example 13” in FIG. 23). […] In thirty minutes after the intravenous administration, allodynia in individual rats was measured to evaluate an analgesic action. […]

[3] = intravenous administration (tail vein), Examples 2, 4: 0.1 to 10 mg/kg, 13: 0.01 to 1 mg/kg, 18, 22: 0.1 and 1 mg/kg, 25, 27, 29, 31, 33, 66, 68, 70: 0.1 mg/kg, pregabalin 1 or 3 mg/kg
[4] = intraventricular administration, 10 μg/site, 15, 30 and 60 minutes after administration, p<0.05

SMILES | analgesic action, total score in the von Frey test [1, 3] | analgesic action, total score in the von Frey test [1, 4] | allodynia, 50% response threshold (mean value of the right hind paw and the left hind paw) [2]
CNC1CCN(C(=O)CCc2nccn2C)CC1 [Example 2, 3-(1-methyl-1H-imidazol-2-yl)-1-(4-(methylamino)piperidin-1-yl)propan-1-one hydrochloride] | statistically significant analgesic action | statistically significant analgesic action | –
CC(=O)N(C)C1CCN(C(=O)CCc2nccn2C)CC1.Cl [Example 4, N-methyl-N-(1-(3-(1-methyl-1H-imidazol-2-yl)propanoyl)piperidin-4-yl)acetamide hydrochloride] | statistically significant analgesic action | statistically significant analgesic action | –
CC(=O)NCCN(C)C1CCN(C(=O)CCc2nccn2C)CC1 [Example 6, N-(2-(methyl(1-(3-(1-methyl-1H-imidazol-2-yl)propanoyl)piperidin-4-yl)amino)ethyl)acetamide hydrochloride] | – | statistically significant analgesic action | –
CC(=O)NC1CCN(C(=O)CCc2nccn2C)CC1.Cl [Example 10, N-(1-(3-(1-methyl-1H-imidazol-2-yl)propanoyl)piperidin-4-yl)acetamide hydrochloride] | – | statistically significant analgesic action | –
CN(C)C1CCN(C(=O)CCc2nccn2CCO)CC1 [Example 12, 1-(4-(dimethylamino)piperidin-1-yl)-3-(1-(2-hydroxyethyl)-1H-imidazol-2-yl)propan-1-one hydrochloride] | – | statistically significant analgesic action | –
CN(C)C1CCN(C(=O)CCc2nccn2CC(=O)O)CC1 [Example 13, 2-(2-(3-(4-(dimethylamino)piperidin-1-yl)-3-oxopropyl)-1H-imidazol-1-yl)acetic acid hydrochloride] | statistically significant analgesic action | statistically significant analgesic action | statistically significantly improved
CN(C)C1CCN(C(=O)CCc2nccn2CCN)CC1 [Example 15, 3-(1-(2-aminoethyl)-1H-imidazol-2-yl)-1-(4-(dimethylamino)piperidin-1-yl)propan-1-one hydrochloride] | – | statistically significant analgesic action | –
CCN(C)C1CCN(C(=O)CCc2nccn2CC(=O)O)CC1.Cl [Example 18, 2-(2-(3-(4-(ethylmethylamino)piperidin-1-yl)-3-oxopropyl)-1H-imidazol-1-yl)acetic acid hydrochloride] | statistically significant analgesic action | – | –
CCN(CC)C1CCN(C(=O)CCc2nccn2CC(=O)O)CC1.Cl [Example 22, 2-(2-(3-(4-(diethylamino)piperidin-1-yl)-3-oxopropyl)-1H-imidazol-1-yl)acetic acid hydrochloride] | statistically significant analgesic action | – | –
Cl.O=C(O)Cn1ccnc1CCC(=O)N1CCC(N2CCCCC2)CC1 [Example 25, 2-(2-(3-(4-(piperidin-1-yl)piperidin-1-yl)-3-oxopropyl)-1H-imidazol-1-yl)acetic acid hydrochloride] | statistically significant analgesic action | – | –
Cl.O=C(O)Cn1ccnc1CCC(=O)N1CCC(N2CCOCC2)CC1 [Example 27, 2-(2-(3-(4-(morpholin-4-yl)piperidin-1-yl)-3-oxopropyl)-1H-imidazol-1-yl)acetic acid hydrochloride] | statistically significant analgesic action | – | –
CN1CCN(C2CCN(C(=O)CCc3nccn3CC(=O)O)CC2)CC1.Cl [Example 29, 2-(2-(3-(4-(1-methylpiperazin-4-yl)piperidin-1-yl)-3-oxopropyl)-1H-imidazol-1-yl)acetic acid hydrochloride] | statistically significant analgesic action | – | –
CN(C)[C@@H]1CCCN(C(=O)CCc2nccn2CC(=O)O)C1.Cl [Example 31, 2-(2-(3-((R)-3-dimethylaminopiperidin-1-yl)-3-oxopropyl)-1H-imidazol-1-yl)acetic acid hydrochloride] | statistically significant analgesic action | – | –
CN(C)[C@H]1CCN(C(=O)CCc2nccn2CC(=O)O)C1.Cl [Example 33, (S)-2-(2-(3-(3-(dimethylamino)pyrrolidin-1-yl)-3-oxopropyl)-1H-imidazol-1-yl)acetic acid hydrochloride] | statistically significant analgesic action | – | –
CN(C)C1CCN(C(=O)CCc2nccn2CCC(=O)O)CC1 [Example 66, 3-(2-(3-(4-(dimethylamino)piperidin-1-yl)-3-oxopropyl)-1H-imidazol-1-yl)propanoic acid hydrochloride] | statistically significant analgesic action | – | –
CN(C)[C@H]1CCCN(C(=O)CCc2nccn2CCC(=O)O)C1.Cl [Example 68, 3-(2-(3-((S)-3-dimethylaminopiperidin-1-yl)-3-oxopropyl)-1H-imidazol-1-yl)propanoic acid hydrochloride] | statistically significant analgesic action | – | –
CN(C)[C@H]1CCN(C(=O)CCc2nccn2CCC(=O)O)C1.Cl [Example 70, (S)-3-(2-(3-(3-(dimethylamino)pyrrolidin-1-yl)-3-oxopropyl)-1H-imidazol-1-yl)propanoic acid hydrochloride] | statistically significant analgesic action | – | –
